Assay results from ChEMBL document CHEMBL1121503, “Estrogen receptor based imaging agents. 2. Synthesis and receptor binding affinity of side-chain halogenated hexestrol derivatives” (J Med Chem, 1980).

Molecular target: Estrogen receptor (Ovis aries) (UniProt P49885+Q9TU15)

| RAC | Compound |
| --- | --- |
| 20 | C/C(=C(/C)c1ccc(O)cc1)c1ccc(O)cc1 |
| 48 | Oc1ccc(/C(=C(/c2ccc(O)cc2)C(F)(F)F)C(F)(F)F)cc1 |
| 300 | CC[C@H](c1ccc(O)cc1)[C@@H](CC)c1ccc(O)cc1 |
| 60 | CCC(c1ccc(O)cc1)C(CCI)c1ccc(O)cc1 (stereo not given) |
| 10 | Oc1ccc(/C(=C(/c2ccccc2)C(F)(F)F)C(F)(F)F)cc1 |
| 113 | CCC(c1ccc(O)cc1)C(CCCl)c1ccc(O)cc1 (stereo not given) |
| 71 | CCC(c1ccc(O)cc1)C(CCBr)c1ccc(O)cc1 (stereo not given) |
| 129 | CCC(c1ccc(O)cc1)C(CCF)c1ccc(O)cc1 (stereo not given) |
| 21 | Oc1ccc(C(=C(C(F)(F)F)C(F)(F)F)c2ccccc2)cc1 |
| 32 | Oc1ccc(C(=C2CCCCC2)c2ccc(O)cc2)cc1 |
